Measurements published in patent publication EP0382636A1, “Pyrimidine derivatives, 2-[4-(alpha-heteroaryl-alpha-aryl-(alpha-alkyl)-methoxy)-butyl)-1-piperazinyl], with a serotoninergical activity” (LABORATORIOS DEL DR. ESTEVE, S.A., priority 1989, dated 1990).

Molecular target: T1, récepteurs 5-HT 1A (Homo sapiens, UniProt P08908)
T1 sequence (P08908 1-422): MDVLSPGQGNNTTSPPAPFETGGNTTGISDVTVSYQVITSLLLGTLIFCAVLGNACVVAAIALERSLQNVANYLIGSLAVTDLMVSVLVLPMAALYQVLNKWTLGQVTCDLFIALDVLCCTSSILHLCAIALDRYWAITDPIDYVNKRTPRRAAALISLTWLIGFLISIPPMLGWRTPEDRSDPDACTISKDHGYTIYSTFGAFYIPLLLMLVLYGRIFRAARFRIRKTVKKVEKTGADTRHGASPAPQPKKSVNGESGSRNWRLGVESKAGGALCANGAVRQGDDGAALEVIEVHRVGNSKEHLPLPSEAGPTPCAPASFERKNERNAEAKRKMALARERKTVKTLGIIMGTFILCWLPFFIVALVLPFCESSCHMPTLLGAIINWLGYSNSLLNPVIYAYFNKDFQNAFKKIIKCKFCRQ
Assay: 5-HT 1A receptor binding (radioligand displacement)
Settings: specific binding to 5-HT 1A receptors; test concentration not given; method cited from M. Hapon, Brain Receptor Methodologies
Text: L'activité de certains composés sur le système nerveux central a été étudiée et plus précisément leur activité sérotoninergique, par leur union spécifique aux récepteurs 5-HT 1A. TABLEAU II

Structure (SMILES) | Binding 5-HT-1A déplacement (%)
O=C1CC2(CCCC2)CC(=O)N1CCCCN1CCN(c2ncccn2)CC1 [Buspirone, reference compound] | 99,1%
Cn1ccnc1C(C)(OCCCCN1CCN(c2ncccn2)CC1)c1ccc(Cl)cc1 (centres unmarked) [Exemple 2] | 98,6%
CCCCn1ccnc1C(OCCCCN1CCN(c2ncccn2)CC1)c1ccc(Cl)cc1 (centres unmarked) [Exemple 5] | 91,5%
Cn1nccc1C(OCCCCN1CCN(c2ncccn2)CC1)c1ccc(Cl)cc1 (centres unmarked) [Exemple 8] | 95,0%
Cn1nccc1C(C)(OCCCCN1CCN(c2ncccn2)CC1)c1ccc(Cl)cc1 (centres unmarked) [Exemple 9] | 95,0%
O=C1c2ccccc2S(=O)(=O)N1CCCCN1CCN(c2ncccn2)CC1 [Ipsapirone, reference compound] | 99,6%

More lines, now with the values ahead:

Binding 5-HT-1A déplacement (%) | Structure (SMILES)
94,7% | Cn1ccnc1C(OCCCCN1CCN(c2ncccn2)CC1)c1ccc(Cl)cc1 (centres unmarked) [Exemple 1]
97,6% | CCCCn1ccnc1C(C)(OCCCCN1CCN(c2ncccn2)CC1)c1cccc(C(F)(F)F)c1 (centres unmarked) [Exemple 3]
98,1% | Cn1ccnc1C(C)(OCCCCN1CCN(c2ncccn2)CC1)c1cccc(C(F)(F)F)c1 (centres unmarked) [Exemple 4]
94,6% | CCCCn1ccnc1C(OCCCCN1CCN(c2ncccn2)CC1)c1cccc(C(F)(F)F)c1 (centres unmarked) [Exemple 6]
98,3% | Cn1ccnc1C(OCCCCN1CCN(c2ncccn2)CC1)c1cccc(C(F)(F)F)c1 (centres unmarked) [Exemple 7]
